# Test results published in patent US9873920B2, “Method for evaluating side-effect onset risk in anticancer drug treatment, including detecting MUC4 gene polymorphism” (SAITAMA MEDICAL UNIVERSITY, priority 2013, dated 2018).
# Where two headings read alike, the source gives them in different places.
# Assays:
# [1] = human, in vivo
# Source text: It should be noted, of course, that death due to the side effect of drugs is a serious problem also in countries other than Japan, apart from its frequency.
# [2] = cited from earlier work
# [3] = cited from earlier work; remark: listed apart in the source
smiles,measurement,setting,value
COc1cc2ncnc(Nc3ccc(F)c(Cl)c3)c2cc1OCCCN1CCOCC1 [gefitinib],times higher frequency of diffuse alveolar damage in Japanese,[1],not less than 10 times
C#Cc1cccc(Nc2ncnc3cc(OCCOC)c(OCCOC)cc23)c1 [erlotinib],times higher frequency of diffuse alveolar damage in Japanese,[1],not less than 10 times
same,frequency of diffuse alveolar damage,[2]; in Japanese,2.7%
same,frequency of diffuse alveolar damage,[2]; surveys on Asians,0.2%
same,frequency of development of ILD in Chinese relative to Japanese,[3]; Chinese versus Japanese,not more than the frequency of development in Japanese
same,frequency of development of ILD in Westerners relative to the frequency in Japanese,[3]; Westerners versus Japanese,not more than 1/10
same,frequency of development of interstitial lung disease (ILD),[3]; in Japanese,about 4%
